Common to all, as to format: functional, cell-based
For data set [1], the target named is T1, Solute carrier family 15 member 2 (Rattus norvegicus) (UniProt Q63424).
T1 sequence (whole entry): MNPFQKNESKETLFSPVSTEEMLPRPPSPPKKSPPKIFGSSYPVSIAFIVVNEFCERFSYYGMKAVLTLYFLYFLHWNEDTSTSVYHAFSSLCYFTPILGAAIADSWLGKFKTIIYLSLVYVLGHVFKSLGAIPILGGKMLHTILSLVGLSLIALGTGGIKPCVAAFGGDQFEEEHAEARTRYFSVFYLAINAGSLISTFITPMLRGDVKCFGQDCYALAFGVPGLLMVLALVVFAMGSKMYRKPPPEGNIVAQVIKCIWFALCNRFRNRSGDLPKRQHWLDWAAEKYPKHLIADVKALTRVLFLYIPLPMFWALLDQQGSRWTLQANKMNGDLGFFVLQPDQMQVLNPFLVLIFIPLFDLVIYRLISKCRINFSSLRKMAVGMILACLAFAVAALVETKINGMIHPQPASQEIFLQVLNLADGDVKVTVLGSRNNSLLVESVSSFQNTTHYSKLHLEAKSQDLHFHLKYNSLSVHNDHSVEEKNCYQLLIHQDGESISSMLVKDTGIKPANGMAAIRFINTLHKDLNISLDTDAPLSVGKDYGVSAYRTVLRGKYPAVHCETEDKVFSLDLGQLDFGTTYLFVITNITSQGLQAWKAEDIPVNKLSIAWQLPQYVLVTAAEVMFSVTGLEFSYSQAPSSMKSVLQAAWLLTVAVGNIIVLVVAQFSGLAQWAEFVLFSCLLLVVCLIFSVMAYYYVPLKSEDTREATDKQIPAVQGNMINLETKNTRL
Briefly: TP_TRANSPORTER: inhibition of Gly-Sar uptake (Gly-Sar: 20 uM, Tyr-OMe: 10000 uM) in PEPT2-expressing LLC-PK1 cells.

The target of data set [2] is T2, Solute carrier family 15 member 1 (Rattus norvegicus) (UniProt P51574).
T2 sequence (whole entry): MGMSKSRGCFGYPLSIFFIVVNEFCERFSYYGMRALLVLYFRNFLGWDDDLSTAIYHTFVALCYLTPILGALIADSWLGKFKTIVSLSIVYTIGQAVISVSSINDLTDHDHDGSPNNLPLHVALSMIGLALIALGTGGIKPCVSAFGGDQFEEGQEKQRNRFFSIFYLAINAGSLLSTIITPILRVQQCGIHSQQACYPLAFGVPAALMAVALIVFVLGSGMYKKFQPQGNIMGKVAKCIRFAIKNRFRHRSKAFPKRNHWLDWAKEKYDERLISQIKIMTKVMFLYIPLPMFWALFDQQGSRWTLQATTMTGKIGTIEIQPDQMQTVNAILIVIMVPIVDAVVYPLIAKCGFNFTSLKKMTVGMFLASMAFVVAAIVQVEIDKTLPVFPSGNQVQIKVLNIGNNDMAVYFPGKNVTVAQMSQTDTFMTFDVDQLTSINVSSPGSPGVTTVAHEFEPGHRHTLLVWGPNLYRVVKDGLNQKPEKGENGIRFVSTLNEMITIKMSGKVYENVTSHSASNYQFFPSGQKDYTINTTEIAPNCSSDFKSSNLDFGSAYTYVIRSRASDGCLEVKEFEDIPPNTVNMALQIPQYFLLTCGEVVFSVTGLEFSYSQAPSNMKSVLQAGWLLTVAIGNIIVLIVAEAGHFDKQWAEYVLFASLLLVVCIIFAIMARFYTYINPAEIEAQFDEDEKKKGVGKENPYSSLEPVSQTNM
Description: TP_TRANSPORTER: inhibition of Gly-Sar uptake (Gly-Sar: 20 uM, Ser-OMe: 10000 uM) in PEPT1-expressing LLC-PK1 cells.

For data set [3], the target named is T3, Solute carrier family 15 member 2 (Rattus norvegicus, UniProt Q63424).
T3 sequence (Q63424 whole entry): T1 sequence (whole entry)
Description: TP_TRANSPORTER: inhibition of Gly-Sar uptake in PEPT2-expressing LLC-PK1 cells.

In data set [4] the target is T4, Solute carrier family 15 member 1 (Rattus norvegicus, UniProt P51574).
T4 sequence (P51574 whole entry): T2 sequence (whole entry)
Description: TP_TRANSPORTER: inhibition of Gly-Sar uptake in PEPT1-expressing LLC-PK1 cells.

The target of data set [5] is T2, Solute carrier family 15 member 1 (Rattus norvegicus). Briefly: TP_TRANSPORTER: inhibition of Gly-Sar uptake (Gly-Sar: 20 uM, Leu-OMe: 10000 uM) in PEPT1-expressing LLC-PK1 cells.
The target of data set [6] is T1, Solute carrier family 15 member 2 (Rattus norvegicus). Briefly: TP_TRANSPORTER: inhibition of Gly-Sar uptake (Gly-Sar: 20 uM, Leu-OMe: 10000 uM) in PEPT2-expressing LLC-PK1 cells.
Data set [7] addresses T2, Solute carrier family 15 member 1 (Rattus norvegicus). Description: TP_TRANSPORTER: inhibition of Gly-Sar uptake (Gly-Sar: 20 uM, Val-tBu: 10000 uM) in PEPT1-expressing LLC-PK1 cells.
Data set [8] has as its target T1, Solute carrier family 15 member 2 (Rattus norvegicus). Description: TP_TRANSPORTER: inhibition of Gly-Sar uptake (Gly-Sar: 20 uM, Val-tBu: 10000 uM) in PEPT2-expressing LLC-PK1 cells.
Data set [9] has as its target T2, Solute carrier family 15 member 1 (Rattus norvegicus). Briefly: TP_TRANSPORTER: inhibition of Gly-Sar uptake (Gly-Sar: 20 uM, Val-OBzl: 10000 uM) in PEPT1-expressing LLC-PK1 cells.
The target in data set [10] is T1, Solute carrier family 15 member 2 (Rattus norvegicus). Description: TP_TRANSPORTER: inhibition of Gly-Sar uptake (Gly-Sar: 20 uM, Val-OBzl: 10000 uM) in PEPT2-expressing LLC-PK1 cells.
Data set [11] deals with T2, Solute carrier family 15 member 1 (Rattus norvegicus). Briefly: TP_TRANSPORTER: inhibition of Gly-Sar uptake (Gly-Sar: 20 uM, Gly-OMe: 10000 uM) in PEPT1-expressing LLC-PK1 cells.
Data set [12] addresses T1, Solute carrier family 15 member 2 (Rattus norvegicus). Description: TP_TRANSPORTER: inhibition of Gly-Sar uptake (Gly-Sar: 20 uM, Gly-OMe: 10000 uM) in PEPT2-expressing LLC-PK1 cells.
Data set [13] addresses T2, Solute carrier family 15 member 1 (Rattus norvegicus). Description: TP_TRANSPORTER: inhibition of Gly-Sar uptake (Gly-Sar: 20 uM, Ala-OMe: 10000 uM) in PEPT1-expressing LLC-PK1 cells.
For data set [14], the target named is T1, Solute carrier family 15 member 2 (Rattus norvegicus). Briefly: TP_TRANSPORTER: inhibition of Gly-Sar uptake (Gly-Sar: 20 uM, Ala-OMe: 10000 uM) in PEPT2-expressing LLC-PK1 cells.
Data set [15] has as its target T2, Solute carrier family 15 member 1 (Rattus norvegicus). Briefly: TP_TRANSPORTER: inhibition of Gly-Sar uptake (Gly-Sar: 20 uM, Val-OEt: 10000 uM) in PEPT1-expressing LLC-PK1 cells.
Data set [16] deals with T1, Solute carrier family 15 member 2 (Rattus norvegicus). Briefly: TP_TRANSPORTER: inhibition of Gly-Sar uptake (Gly-Sar: 20 uM, Val-OEt: 10000 uM) in PEPT2-expressing LLC-PK1 cells.
Data set [17] concerns the target T2, Solute carrier family 15 member 1 (Rattus norvegicus). Briefly: TP_TRANSPORTER: inhibition of Gly-Sar uptake (Gly-Sar: 20 uM, Ile-OMe: 10000 uM) in PEPT1-expressing LLC-PK1 cells.
Data set [18] concerns the target T1, Solute carrier family 15 member 2 (Rattus norvegicus). Briefly: TP_TRANSPORTER: inhibition of Gly-Sar uptake (Gly-Sar: 20 uM, Ile-OMe: 10000 uM) in PEPT2-expressing LLC-PK1 cells.
Substrate in data set [19]: CN(CC(=O)O)C(=O)CN
Briefly: TP_TRANSPORTER: uptake in PEPT2-expressing LLC-PK1 cells.

Substrate in data set [20]: CN(CC(=O)O)C(=O)CN
Briefly: TP_TRANSPORTER: uptake in PEPT1-expressing LLC-PK1 cells.

“And” between values parts separate entries of the source, which are not always exact repeats. Equal values may be shown once.

Broadly, the Ki is the equilibrium dissociation constant of an inhibitor or competing ligand from its target. Low readings indicate a stronger hold on the target, high ones a looser hold on the target. Usually Km stands for the substrate concentration at which the rate is half of its maximum.

As for `COC(=O)[C@@H](N)Cc1ccc(O)cc1`, the Activity entry in data set [1] was “inhibitor [+]”.

Consider `COC(=O)[C@@H](N)CO`, for which, in data set [2], the Activity entry is “inhibitor [+]”.

Take `COC(=O)[C@@H](N)C(C)C`: the Ki was 830 µM in [3] and 3600 µM in data set [4].

In the case of `COC(=O)[C@@H](N)CC(C)C`, the Activity result in data set [5] and in [6] was “inhibitor [+]” in each case.

Turning to `CC(C)[C@H](N)C(=O)OC(C)(C)C`, the Activity result in [7] and in data set [8] was “inhibitor [+]” each time.

In the case of `CC(C)[C@H](N)C(=O)OCc1ccccc1`, the Activity entry in data set [9] and in data set [10] was “inhibitor [+]” each time.

In the case of `COC(=O)CN`, the Activity entry in [11] and in data set [12] was “inhibitor [+]” each time.

For `COC(=O)[C@H](C)N`, the Activity entry in data set [13] and in data set [14] was “inhibitor [+]” in each case.

With `CCOC(=O)[C@@H](N)C(C)C`, the Activity result in data set [15] and in data set [16] was “inhibitor [+]” throughout.

For the molecule `CC(C)[C@H](N)C(=O)OCCOCn1cnc2c(=O)[nH]c(N)nc21` [VALACYCLOVIR], the inhibition constant (Ki) in data set [3] was 220 µM; in [3] (llc-pk1), 220 µM; in [4], 2500 µM and 2700 µM.

Turning to `CC[C@H](C)[C@H](N)C(=O)OC`, the Activity entry in data set [17] and in [18] was “inhibitor [+]” each time.

B1: Solute carrier family 15 member 2 (Rattus norvegicus), Q63424 (protein)
chain: T1 sequence (whole entry)
As to B1, in [19], the Km was found to be 90 µM.

B2: Solute carrier family 15 member 1 (Rattus norvegicus), P51574 (protein)
chain: T2 sequence (whole entry)
On to B2, for which, in data set [20], the Km is 1900 µM.

The record behind these values is ChEMBL document CHEMBL2074135, “Recognition of L-amino acid ester compounds by rat peptide transporters PEPT1 and PEPT2” (J Pharmacol Exp Ther, 1999).
